# Data from patent US9682928B2 (NeuroPro Therapeutics, Inc., priority 2009, dated 2017).
# Where “and” joins values, the source holds several entries; their conditions need not be identical. Equal entries are not always repeated. Entries after “also recorded” stand apart in the source; their conditions may differ. Where two headings read alike, the source gives them in different places.
# How the values were obtained:
# [1] = target: T1, α4β3γ2 GABAA receptor isoform (Homo sapiens, UniProt P18507+P28472+P48169); assay: Whole-cell patch clamp, transfected HEK-293T cells; type: cell-based, rat or human
# T1 construct: expressed in transfected cells; host or cells: HEK-293T, transient transfection
# T1 sequence (P48169 36-554): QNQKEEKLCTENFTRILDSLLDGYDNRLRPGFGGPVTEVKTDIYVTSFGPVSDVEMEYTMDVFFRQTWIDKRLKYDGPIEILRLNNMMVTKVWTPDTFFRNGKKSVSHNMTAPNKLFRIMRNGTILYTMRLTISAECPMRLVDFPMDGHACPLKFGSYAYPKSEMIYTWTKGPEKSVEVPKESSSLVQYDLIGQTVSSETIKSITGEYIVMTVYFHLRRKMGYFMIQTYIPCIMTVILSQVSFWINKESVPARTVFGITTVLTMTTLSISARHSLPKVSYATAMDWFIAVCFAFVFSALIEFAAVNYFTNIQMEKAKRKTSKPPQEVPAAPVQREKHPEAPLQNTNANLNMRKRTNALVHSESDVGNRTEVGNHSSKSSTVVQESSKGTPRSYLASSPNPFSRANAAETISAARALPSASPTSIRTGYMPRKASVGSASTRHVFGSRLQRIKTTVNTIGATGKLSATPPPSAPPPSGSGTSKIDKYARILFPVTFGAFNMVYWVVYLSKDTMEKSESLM
# T1 sequence (P28472 26-473): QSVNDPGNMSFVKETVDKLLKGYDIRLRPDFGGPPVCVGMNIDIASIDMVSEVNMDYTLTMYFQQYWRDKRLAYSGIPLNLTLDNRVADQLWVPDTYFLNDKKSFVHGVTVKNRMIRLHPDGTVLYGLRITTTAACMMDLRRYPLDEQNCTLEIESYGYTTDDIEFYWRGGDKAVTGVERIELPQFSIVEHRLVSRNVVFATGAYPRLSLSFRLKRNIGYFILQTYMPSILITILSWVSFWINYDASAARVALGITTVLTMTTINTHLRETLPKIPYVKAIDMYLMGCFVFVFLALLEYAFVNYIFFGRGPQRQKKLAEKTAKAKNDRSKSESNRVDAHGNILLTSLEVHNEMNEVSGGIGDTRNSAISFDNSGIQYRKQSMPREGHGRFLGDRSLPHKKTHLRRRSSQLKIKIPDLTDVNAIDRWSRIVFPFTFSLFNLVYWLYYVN
# T1 sequence (P18507 40-475): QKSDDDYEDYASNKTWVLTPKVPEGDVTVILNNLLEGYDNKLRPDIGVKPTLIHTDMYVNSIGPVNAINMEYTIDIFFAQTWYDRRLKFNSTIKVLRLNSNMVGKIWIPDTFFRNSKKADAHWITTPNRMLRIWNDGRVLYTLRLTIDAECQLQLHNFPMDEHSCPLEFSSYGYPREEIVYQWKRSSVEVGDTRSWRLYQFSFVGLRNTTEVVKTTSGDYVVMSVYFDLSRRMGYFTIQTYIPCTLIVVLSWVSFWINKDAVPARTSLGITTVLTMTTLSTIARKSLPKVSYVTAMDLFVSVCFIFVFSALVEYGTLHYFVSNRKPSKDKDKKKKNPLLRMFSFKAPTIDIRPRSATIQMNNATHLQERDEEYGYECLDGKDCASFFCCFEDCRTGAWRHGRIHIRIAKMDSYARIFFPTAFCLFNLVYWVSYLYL
# Protocol: (§1) The addition of GABA to […] activates the recombinant expressed GABAA receptors, creating an ion movement through the ion channel in the GABAA receptor. The electrical current generated by the movement of chloride ions into the cells can be quantified.
# (§2) HEK-293T cells were transiently transfected with rat or human GABAA receptor subunits. Whole-cell patch clamp recording was performed at −50 mV unless otherwise indicated. Test compounds was diluted from a freshly made stock in DMSO, GABA was prepared from a frozen stock. For each experiment GABA or GABA+a test compound was applied for 5 seconds, and the electrical current generated by the movement of chloride ions into the cells was measured and recorded as a trace of current versus time.
# Compounds described herein (e.g., NTP-2014) were tested at high and low GABA concentrations against multiple GABAA receptor isoforms (e.g., α1β3γ2, α2β3 γ2, α3β3γ2, α3β3γ2, α4β3γ2, α5β3γ2, α6β3γ2). […] NTP-2014 inhibits the currents in the parasynaptic α4 GABAA receptor isoform in GABAergic interneurons. […]
# Male CD-1 mice = assay: Chung (SNL) neuropathic pain study in mice; type: in vivo, mouse; details: for Other overt toxicity: in vivo, ip; for Reversal of tactile hypersensitivity: mice, i.p., SNL
# Source text: Male CD-1 mice (25-35 g, Charles River) were used for all studies. Mice were housed in groups of five in Plexiglas chambers with food and water available ad libitum. All animals were maintained on a 12 hr light/dark cycle (lights on at 7:00 AM) in a temperature- and humidity-controlled animal colony. The health status of the animals used in this study was examined on arrival. Only animals in good health were acclimatized to laboratory conditions and used in the study. The acclimation period to the vivarium was a minimum of 7 days. All animal experiments were performed under an approved protocol in accordance with institutional guidelines and in accordance with the Guide for the Care and Use of Laboratory Animals as adopted and promulgated by the National Institutes of Health.
# NTP has provided adequate amounts of NTP-2014 and NTP-2026 along with detailed instructions for preparing injection solutions. Gabapentin (Gallipot, St. Paul, Minn.) was dissolved in physiological saline. Injections were made using a 1-mL syringe with a 30-gauge needle at a volume of 10 ml/kg body weight. Animal body weights were measured prior to surgery and then on the morning of Day 7 (post-SNL testing). For i.p. drug administration, each mouse was firmly grasped by the nape of the neck and the tail was tucked between the last two fingers and palm of the technician's hand. The back of the mouse iwasarched slightly backwards exposing the abdominal region. The needle was inserted through the skin and abdominal musculature into the peritoneal cavity just off of the midline. Mice are immediately returned to the testing cage until behavioral testing.
# NTP2026 (56, 100 and 180 mg/kg, i.p.); NTP 2014 (32, 56 and 100 mg/kg, i.p.); Gabapentin (100 mg/kg, i.p.); Vehicle Control (10% TPGS in benzoate buffer, i.p.).
# SNL surgeries were performed based on the procedures described for rats (Kim and Chung, 1992) and modified for mice (Wang et al., 2001). Anesthesia was maintained with 0.5% halothane in O2 and body temperature was maintained using a heated water blanket. After surgical preparation of the mice, a 1-cm paraspinal incision was made at the level L4-S2. The L5 and L6 spinal nerves were exposed and tightly ligated using a 4-0 silk suture. The ligation was made distal to the dorsal root ganglion but before the fibers joined the sciatic nerve. The incisions were then closed, and animals are allowed to recover. […] Mechanical thresholds were determined by measuring the paw withdrawal threshold to probing with a series of calibrated von Frey filaments as described below.
# Non-noxious sensory thresholds of the mice were determined by paw withdrawal […] to probing with a series of calibrated (0.02-2.34 gm on a logarithmic scale) von Frey filaments (“up and down” method) according to Chaplan et al. (1994) and analyzed using a Dixon (1980) nonparametric test. Results are expressed as the mean withdrawal thresholds. Baseline latencies/thresholds were determined prior to surgery, on the morning of Day 7, and then between 20-60 minutes post dosing with the test drugs. The post-drug time corresponds to the time of maximal activity for these compounds in the tail-flick assay.
# NKCC1 = target: T2, NKCC1 (Homo sapiens, UniProt P55011); assay: NKCC1 Rb+ influx assay in human adult skin fibroblasts; type: cell-based
# T2 construct: endogenous in cells; host or cells: human adult skin fibroblasts (primary culture)
# T2 sequence (P55011 whole entry): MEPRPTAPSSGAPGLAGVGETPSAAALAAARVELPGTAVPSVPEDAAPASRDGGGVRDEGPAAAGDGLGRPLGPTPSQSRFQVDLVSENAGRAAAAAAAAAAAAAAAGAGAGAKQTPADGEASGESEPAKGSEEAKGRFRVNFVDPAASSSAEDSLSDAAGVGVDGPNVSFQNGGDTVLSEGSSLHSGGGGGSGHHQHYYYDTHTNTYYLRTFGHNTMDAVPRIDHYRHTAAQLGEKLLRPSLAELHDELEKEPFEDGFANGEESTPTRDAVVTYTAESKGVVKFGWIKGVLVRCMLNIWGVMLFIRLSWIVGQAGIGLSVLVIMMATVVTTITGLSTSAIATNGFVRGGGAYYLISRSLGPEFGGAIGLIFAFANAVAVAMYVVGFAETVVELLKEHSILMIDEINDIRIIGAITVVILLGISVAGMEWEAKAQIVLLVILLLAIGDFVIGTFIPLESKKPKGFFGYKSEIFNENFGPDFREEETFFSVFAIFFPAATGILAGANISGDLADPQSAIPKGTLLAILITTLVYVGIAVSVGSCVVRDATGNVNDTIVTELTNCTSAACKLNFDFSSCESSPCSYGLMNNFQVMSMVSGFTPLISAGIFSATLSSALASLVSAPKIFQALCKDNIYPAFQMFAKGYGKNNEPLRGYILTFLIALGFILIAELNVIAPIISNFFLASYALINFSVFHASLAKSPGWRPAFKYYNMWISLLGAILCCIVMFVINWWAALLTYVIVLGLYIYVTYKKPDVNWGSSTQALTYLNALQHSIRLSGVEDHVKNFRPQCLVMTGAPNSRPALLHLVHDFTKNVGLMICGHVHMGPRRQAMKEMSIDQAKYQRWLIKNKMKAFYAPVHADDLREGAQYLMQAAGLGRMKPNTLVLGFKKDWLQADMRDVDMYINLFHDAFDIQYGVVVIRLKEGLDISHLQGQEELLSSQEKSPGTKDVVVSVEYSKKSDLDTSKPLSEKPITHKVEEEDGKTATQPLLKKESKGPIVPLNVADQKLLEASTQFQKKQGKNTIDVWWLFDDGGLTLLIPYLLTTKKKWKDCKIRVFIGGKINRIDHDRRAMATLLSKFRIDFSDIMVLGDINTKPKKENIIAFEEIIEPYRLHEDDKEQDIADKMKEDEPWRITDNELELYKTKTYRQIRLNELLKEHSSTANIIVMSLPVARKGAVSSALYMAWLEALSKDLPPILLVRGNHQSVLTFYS
# Protocol: The protocol may be done in accordance with Panet and Alan The Journal of Cell Biology, Volume 114, Number 2, July 1991 337-342. Human adult skin fibroblasts were seeded at 3 concentrations: 3000/5000/10 000 on 96 well culture plates with DMEM supplemented with 10% FCS and 4 mM glutamine (37° C., CO2). Medium was replaced with DMEM supplemented with 0.2% FCS, 4 mM glutamine and 20 mM HEPES (37° C., CO2). The NKCC assay may be performed according the standard operating procedure as described in Chassande, et al. (1988) “The Na+/K+/CI^− cotransport in C6 glioma cells.” Eur. J. Biochem. 171: 425-433.
# This allows for the administration of the compounds described herein described herein without unwanted diuretic side effects.
# [2] = test system: GABAA-IPSCs, hippocampal slices (CA1 pyramidal cell layer); assay: In vitro hippocampal slice recordings of miniature and spontaneous IPSCs; type: cell-based; details: two experiments
# Protocol: Ion flux in neuronal cells was measured using standard techniques. Kandel and Schwartz Principles of Neural Science 2nd Edition (1985), see, e.g., pages 128-131. Recording was performed in vitro in hippocampal slices (CA1 pyramidal cell layer). For recording GABAA-IPSCs, glutamatergic and GABAB transmission was blocked by adding DNOX (50 μM), AP-5 (50 μM), and SCH50911 ([…]) into the medium. The intracellular solution comprised CsCl and OX314.
# [3] = target: T3, δ-containing GABAA receptors (Homo sapiens, UniProt O14764); assay: Whole-cell patch clamp, transfected HEK-293T cells; type: cell-based, rat or human; details: 10 μM NTP-2014
# T3 construct: expressed in transfected cells; host or cells: HEK-293T, transient transfection
# T3 sequence (O14764 25-452): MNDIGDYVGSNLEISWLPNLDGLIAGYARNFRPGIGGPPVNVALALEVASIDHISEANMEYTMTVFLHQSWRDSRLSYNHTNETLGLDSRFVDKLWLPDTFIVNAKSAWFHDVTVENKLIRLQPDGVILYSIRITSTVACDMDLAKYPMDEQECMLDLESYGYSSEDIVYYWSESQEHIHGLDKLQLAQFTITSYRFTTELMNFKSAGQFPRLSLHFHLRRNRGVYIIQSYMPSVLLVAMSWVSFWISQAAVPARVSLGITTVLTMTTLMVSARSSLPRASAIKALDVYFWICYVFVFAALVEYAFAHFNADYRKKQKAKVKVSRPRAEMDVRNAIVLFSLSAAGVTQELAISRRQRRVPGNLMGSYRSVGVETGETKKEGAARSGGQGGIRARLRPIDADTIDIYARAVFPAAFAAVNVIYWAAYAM
# Protocol: as §1, §2
# [4] = Tolerability after oral administration; type: in vivo
# in vivo [5] = details: rat
# in vivo [6] = details: dog
SMILES,"Effect on α4β3γ2 GABAA receptor isoform ([1]; up to a concentration of 100 μM, 100 μM GABA)","Other overt toxicity (Male CD-1 mice; male, CD-1, mouse)",Reversal of tactile hypersensitivity (Male CD-1 mice),Other overt toxicity (Male CD-1 mice; mouse),Inhibition of NKCC1 in the presence of a co-transporter activating mitogen (FGF) (NKCC1),Inhibition of NKCC1 chloride transport (NKCC1; primary cell cultures),"Mean interval between inhibitory events, spontaneous IPSCs, with NTP-2014 ([2]; from 257 ms (FIG. 34A) and from 535 ms (FIG. 34B))","Mean interval between inhibitory events, miniature IPSCs, with NTP-2014 ([2]; from 315 ms (FIG. 35A) and from 361 ms (FIG. 35B))","IC50 ([1]; 100 μM GABA (FIG. 42), read-out: IC50, inhibition of α4β3γ2 GABAA receptor isoform)","Effect on currents, α4 GABAA receptor isoform ([1]; 1, 10, 100 μM GABA)","EC50 ([1]; FIG. 41C, read-out: EC50 in α4 containing GABAA receptor isoforms)","IC50 ([1]; read-out: IC50, receptors containing the α4 subunit)",Effect on δ-containing receptors [3],CNS side effects ([4]; after oral administration),Toxicological tolerability ([4]; in vivo),NOAEL at 14 day (in vivo [5]),NOAEL at 14 day (in vivo [6])
"CCCCNc1cc(C(=O)O)cc(S(N)(=O)=O)c1Oc1ccccc1 [Bumetanide, reference compound]",no effect; also recorded: no-effect,–,–,–,–,–,–,–,–,–,–,–,–,–,–,–,–
"CCCCN(CCCC)c1cc(C(=O)O)cc(S(N)(=O)=O)c1Oc1ccccc1 [NTP-2014, 3-Aminosulfonyl-5-N,N-dibutylamino-4-phenoxybenzoic acid]",–,high dose group (180 mg/kg). No other,"dose-dependent reversal of tactile hypersensitivity; also recorded: effective analgesic effects; also recorded: Dose-dependent, very significant",No other overt toxicity,did not inhibit,no inhibition,205 ms and 401 ms,162 ms and 160 ms,16 µM,"inhibiting currents; also recorded: inhibited by NTP-2014 at higher GABA concentrations, but unaffected at lower GABA concentrations; also recorded: inhibition of currents",20.2 µM,10 to 30 µM,unaffected,no CNS side effects,well-tolerated,500 mg/kg,4.5 mg/kg
"CCCCNc1cc(C(=O)N(C)CCCN(C)C)cc(S(N)(=O)=O)c1Oc1ccccc1 [NTP-2026, N-(3-(Dimethylamino)propyl)-N-methyl 3-Aminosulfonyl-5-N-butylamino-4-phenoxybenzamide]",–,–,"dose-dependent reversal of tactile hypersensitivity; also recorded: Dose-dependent, significant reversal of",–,–,–,–,–,–,–,–,–,–,–,–,–,–
